Consider 1 compound from patent US12447167B2, “GM-CSF-producing t-cell control agent and Th1/Th2 immune balance regulator” (National Center of Neurology and Psychiatry, priority 2014, dated 2025).

Each structure is given as a SMILES string.

One may read the AUC(0-inf) as the area under the concentration-time curve extrapolated to infinity. A word on the AUC(0-t): it is exposure summed from dosing to a finite time, without extrapolation to infinity. Broadly, the half-life is the time in which the quantity being followed falls by half. In general, Cmax refers to the maximum level reached in the sampled fluid or tissue. One may read the Tmax as the time from dosing to the highest level.

The test system of data set [1] is GM-CSF-producing CD8-positive T-cells. As to the kind of experiment: GM-CSF-producing CD8-positive T-cells in PBMCs of normal subjects after single oral dose (FACS). The data set is classed as in vivo, human. How it is done: A single dose of compound 31, which is a synthetic glycolipid of the present invention, described in the first aspect, i.e., (2S,3S,4R)-1-O-(α-D-galactosyl)-2-(N-tetracosanoylamino)-1,3,4-nonanetriol represented by the following formula (III), was orally administered to each of subjects of 4 cohorts (A, B, C, and D cohorts) each consisting of 3 normal subjects shown in Table 1 above after obtainment of informed consent.
The dose was set to 0.3 mg per person for A cohort, 1 mg per person for B cohort, 3 mg per person for C cohort, and 10 mg per person for D cohort.
Subsequently, T-cell subfractions were prepared from the peripheral blood of each subject by using the density gradient centrifugation method. First, a total of 20 mL of blood was collected from the vein of each subject 24 hours (1st day), 48 hours (2nd day), 72 hours (3rd day), and 168 hours (7th day) after the administration of compound 31 by using two 10-mL heparin sodium-containing vacuum blood collection tubes. For a control, 20 mL of blood was similarly collected from the vein of each subject one day before the administration of compound 31.
Next, 4 mL of Ficoll-Paque Plus (GE Healthcare Biosciences Corp.) was placed in each of four 15-mL conical tubes, and 10 mL of blood diluted twice with phosphate buffered saline (PBS) was gently layered thereon. Then, density gradient centrifugation was performed by centrifugation at 1800 rpm at ordinary temperature for 30 minutes. After the centrifugation, a supernatant containing plasma and platelet was discarded, and lymphocytes present at the boundary layer between the supernatant layer and the Ficoll-Paque Plus layer were recovered into a fresh 50-mL conical tube. The 50-mL conical tube was filled by adding PBS thereto, followed by centrifugation at 1800 rpm at ordinary temperature for 5 minutes. […] After a supernatant was removed by suction again, a single cell suspension was prepared by adding 1 mL of AIM-V medium (Life Technologies Corp.), and then, the number of cells was measured with a counting chamber. […]

Data set [2] in a line: Disposition after single oral dose, mouse. The data set is classed as in vivo. The following applies: male mouse, 5 mg/kg single oral, 14C-labeled, fasting. The arrangement: concentration in blood: unit not given here. How it is done:
After a single dose of compound 31 labeled with ^14C was orally administered at a predetermined dose to each of a male mouse, a male rat, and a male cynomolgus monkey under fasting conditions, the concentration in blood was measured after a lapse of a given time, and parameters such as maximum plasma concentration Cmax, time Tmax to reach the maximum plasma concentration, half-life t1/2, area under curve AUC0-∞, mean retention time MRT0-∞, and bioavailability BA were calculated. The concentration in blood in humans (normal subjects) was measured and each of the parameters was calculated, in the similar manner as above except that ^14C-unlabeled compound 31 was used.
In the tables, “N.D.” means not detected.

For the compound `CCCCCCCCCCCCCCCCCCCCCCCC(=O)NC(COC1OC(CO)C(O)C(O)C1O)[C@H](O)C(O)CCCCC` (stereo in doubt) [compound 31, (2S,3S,4R)-1-O-(α-D-galactosyl)-2-(N-tetracosanoylamino)-1,3,4-nonanetriol], the “suppressive effects on CD8-positive T-cells” value in data set [1] (A cohort (0.3 mg), 7 days after administration) was “strengthened”. Moreover, the “growth of CD8-positive T-cells” value in data set [1] (C cohort (3 mg), 1 day after administration) is reported as “transiently promoted”. Further, in data set [1] (single oral dose, all cohorts, after administration vs day-1), the “proportion of CD8-positive T-cells (GM-CSF-producing) in PBMCs” value is “decreased”. This compound also displayed an AUC(0-inf) in data set [2] (blood) of 2920 ng·h/mL. The same compound yielded an AUC(0-t) in data set [2] (blood) of 2900 ng·h/mL. In data set [2] (blood), this compound gave a half-life of 11 h. Further, the MRT inf in data set [2] (blood, read-out: MRT0-∞) came to 15.4 h. This compound also showed a BA in data set [2] of 1.01%. Also, in data set [2], the Rate of absorption stood at 1.36%. In addition, the concentration in blood in data set [2] (4 h) is 46.5; in data set [2] (8 h), 209; in data set [2] (12 h), 142; in data set [2] (24 h) it was 33; in data set [2] (48 h), 5.21; in data set [2] (72 h), 1.62. In data set [2] (plasma), this compound gave a Cmax of 209 ng/mL. Also, the Tmax in data set [2] (plasma) came to 8 h.
